Among the data in article PMC9363231, “High‐resolution analysis of individual spike peptide‐specific CD4 ^+ T‐cell responses in vaccine recipients and COVID‐19 patients” (Clinical & Translational Immunology, 2022) are IC50 values, retold here.

Some targets named below: HLA-DRB1*01:01 (Homo sapiens, UniProt P01903+P01911, A100R/D57E/F55L/F60I/F76Y/I96L/L162R/M171V/P40L/Q125E/R42F/V115G/Y59C); HLA-DRB1*03:01 (Homo sapiens, UniProt P01903+P01911, A100K/A102G/A103R/A169T/F55Y/I96L/K41T/L162R/M171V/P40S/Q125H/Q178H/Q39Y/R42S/S66N/T106N/T262R/W38E/Y61H); HLA-DRB1*04:01 (Homo sapiens, UniProt P01903+P01911, A100K/A169T/F76Y/I96L/K127E/L162R/M171V/N62H/P40V/Q125Y/R42H/S133A/S149N/S66Y/V115G/V209L/W38E); HLA-DRB1*04:05 (Homo sapiens, UniProt P01903+P01911, A100R/A169T/D86S/F76Y/I96L/K127E/L162R/M171V/N62H/P40V/Q125Y/R42H/S133A/S149N/S66Y/V115G/V209L/W38E); HLA-DRB1*07:01 (Homo sapiens, UniProt P01903+P01911, A100R/A102G/A103Q/D57E/D86V/E43K/F76Y/K127E/L162R/M171V/P40G/Q125H/Q99D/R33Q/R42Y/R54Q/S133A/S66F/T210M/V115G/Y107V/Y59L/Y89S); HLA-DRB1*08:02 (Homo sapiens, UniProt P01903+P01911, A100R/A103L/A169T/F76Y/H45Y/I96F/K41T/L162R/M171V/P40S/Q125H/Q178H/Q39Y/Q99D/R218S/R42G/S66Y/V115G/W38E); HLA-DRB1*09:01 (Homo sapiens, UniProt P01903+P01911, A100R/A103E/D57H/D86V/F55Y/F60I/F76Y/I96F/K127E/L162R/M171V/P40D/Q125H/Q99R/R33Q/R42F/S133A/S66N/T210M/V115G/W38K/Y107V/Y59G/Y89S); HLA-DRB1*11:01 (Homo sapiens, UniProt P01903+P01911, A100R/A169T/A87E/I96F/K41T/L162R/M171V/P40S/Q125H/Q178H/Q39Y/Q99D/R42S/S66Y/T262R/V115G/W38E); HLA-DRB1*12:01 (Homo sapiens, UniProt P01903+P01911, A100R/A169T/D57E/D86V/F55L/H45Y/K41T/L162R/M171V/P40S/Q125H/Q178H/Q39Y/Q99D/R42G/S66L/T262R/V114A/V67L/W38E/Y59H/Y61H/Y89S); HLA-DRB1*13:02 (Homo sapiens, UniProt P01903+P01911, A100E/A169T/K41T/L162R/M171V/P40S/Q125H/Q178H/Q39Y/Q99D/R42S/S66N/T262R/V115G/W38E/Y61H); HLA-DRB1*15:01 (Homo sapiens, UniProt P01903+P01911).

What all share (test): biochemical
Type in all cases: binding

Where two headings read alike, the source gives them in different places.

Sequence of HLA-DRB1*03:01 (P01903 26-254, other chains not shown): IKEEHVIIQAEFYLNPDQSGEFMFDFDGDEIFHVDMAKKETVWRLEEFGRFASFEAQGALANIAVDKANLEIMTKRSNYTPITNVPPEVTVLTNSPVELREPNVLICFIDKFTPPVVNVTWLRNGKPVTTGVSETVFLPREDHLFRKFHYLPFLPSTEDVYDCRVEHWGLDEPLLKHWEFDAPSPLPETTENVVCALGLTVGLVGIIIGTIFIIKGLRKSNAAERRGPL
Sequence of HLA-DRB1*13:02 (P01903 26-254 limits assumed, other chains not shown): as the sequence (P01903 26-254, other chains not shown) above
Sequence of HLA-DRB1*11:01 (P01903 26-254 limits assumed, other chains not shown): as the sequence (P01903 26-254, other chains not shown) above

As to `CC[C@H](C)[C@H](NC(=O)[C@H](Cc1ccccc1)NC(=O)[C@@H](N)CO)C(=O)N[C@@H](CCC(=O)O)C(=O)N[C@@H](CC(=O)O)C(=O)N[C@@H](CC(C)C)C(=O)N[C@@H](CC(C)C)C(=O)N[C@@H](Cc1ccccc1)C(=O)N[C@@H](CC(N)=O)C(=O)N[C@@H](CCCCN)C(=O)N[C@H](C(=O)N[C@H](C(=O)N[C@@H](CC(C)C)C(=O)N[C@@H](C)C(=O)N[C@@H](CC(=O)O)C(=O)O)[C@@H](C)O)C(C)C` [peptide 164], the IC50 came to 4350 nM on HLA-DRB1*01:01; 3230 nM against HLA-DRB1*03:01; 1100 nM against HLA-DRB1*04:01; 2170 nM against HLA-DRB1*04:05; 3960 nM against HLA-DRB1*07:01; 15200 nM against HLA-DRB1*08:02. Besides, the IC50 is 1300 nM against HLA-DRB1*09:01; 13200 nM at HLA-DRB1*11:01; 537 nM on HLA-DRB1*12:01; 174 nM on HLA-DRB1*13:02; 3170 nM against HLA-DRB1*15:01.

As for `CC[C@H](C)[C@H](NC(=O)[C@H](CCCCN)NC(=O)[C@@H](N)Cc1ccccc1)C(=O)N[C@@H](Cc1ccc(O)cc1)C(=O)N[C@@H](CO)C(=O)N[C@@H](CCCCN)C(=O)N[C@@H](Cc1c[nH]cn1)C(=O)N[C@H](C(=O)N1CCC[C@H]1C(=O)N[C@H](C(=O)N[C@@H](CC(N)=O)C(=O)N[C@@H](CC(C)C)C(=O)N[C@H](C(=O)N[C@@H](CCCNC(=N)N)C(=O)N[C@@H](CC(=O)O)C(=O)O)C(C)C)[C@@H](C)CC)[C@@H](C)O` [peptide 41], the IC50 against HLA-DRB1*01:01 is 64 nM; at HLA-DRB1*03:01, > 40000 nM; on HLA-DRB1*04:01 it was 5250 nM; against HLA-DRB1*04:05 it was 16300 nM; against HLA-DRB1*07:01 it was 2.7 nM; against HLA-DRB1*08:02, 125 nM. The IC50 is 13 nM against HLA-DRB1*09:01; 229 nM against HLA-DRB1*11:01; 7180 nM on HLA-DRB1*12:01; 9040 nM on HLA-DRB1*13:02; 611 nM against HLA-DRB1*15:01.

For `CSCC[C@H](NC(=O)[C@H](CC(C)C)NC(=O)[C@H](Cc1ccccc1)NC(=O)[C@@H]1CCCN1C(=O)[C@H](CCC(N)=O)NC(=O)[C@H](CO)NC(=O)[C@@H](NC(=O)[C@H](Cc1ccc(O)cc1)NC(=O)[C@H](CCC(=O)O)NC(=O)[C@H](Cc1ccccc1)NC(=O)[C@@H](NC(=O)[C@@H](N)CS)[C@@H](C)O)C(C)C)C(=O)N[C@@H](CC(=O)O)C(=O)N[C@@H](CC(C)C)C(=O)N[C@@H](CCC(=O)O)C(=O)O` [peptide 34], the IC50 at HLA-DRB1*01:01 was determined as 495 nM; at HLA-DRB1*03:01, 5860 nM; against HLA-DRB1*04:01, 1150 nM; on HLA-DRB1*04:05, 16 nM; on HLA-DRB1*08:02 it was 1470 nM; against HLA-DRB1*11:01 it was 3380 nM. Moreover, the IC50 against HLA-DRB1*12:01 amounted to 416 nM; against HLA-DRB1*15:01, 7240 nM.

As for `CC[C@H](C)[C@H](NC(=O)[C@H](CC(=O)O)NC(=O)CNC(=O)[C@H](CC(C)C)NC(=O)[C@H](CS)NC(=O)[C@H](CC(=O)O)NC(=O)CNC(=O)[C@H](Cc1ccc(O)cc1)NC(=O)[C@H](CCC(N)=O)NC(=O)[C@H](CCCCN)NC(=O)[C@@H](NC(=O)[C@H](Cc1ccccc1)NC(=O)CNC(=O)[C@H](C)N)[C@@H](C)CC)C(=O)N[C@@H](C)C(=O)O` [peptide 167], the IC50 against HLA-DRB1*01:01 was 1100 nM; against HLA-DRB1*04:01, 836 nM; against HLA-DRB1*04:05, 950 nM; at HLA-DRB1*07:01 it was 740 nM; on HLA-DRB1*08:02, 22300 nM; against HLA-DRB1*09:01, 1560 nM. Also, the IC50 was found to be 3750 nM against HLA-DRB1*11:01, 17000 nM at HLA-DRB1*12:01 and 716 nM at HLA-DRB1*15:01.

Consider `CC(C)[C@H](N)C(=O)N[C@@H](Cc1ccccc1)C(=O)N[C@@H](CC(N)=O)C(=O)N[C@@H](C)C(=O)N[C@H](C(=O)N[C@@H](CCCNC(=N)N)C(=O)N[C@@H](Cc1ccccc1)C(=O)N[C@@H](C)C(=O)N[C@@H](CO)C(=O)N[C@H](C(=O)N[C@@H](Cc1ccc(O)cc1)C(=O)N[C@@H](C)C(=O)N[C@@H](Cc1c[nH]c2ccccc12)C(=O)N[C@@H](CC(N)=O)C(=O)N[C@@H](CCCNC(=N)N)C(=O)O)C(C)C)[C@@H](C)O` [peptide 69], for which the IC50 was 1030 nM at HLA-DRB1*01:01 (read-out: in vitro binding capacity (IC50), DRB1*01:01); > 40000 nM against HLA-DRB1*03:01; 853 nM at HLA-DRB1*04:01; 976 nM against HLA-DRB1*04:05; 2.7 nM against HLA-DRB1*07:01; 3710 nM at HLA-DRB1*08:02. The IC50 at HLA-DRB1*09:01 was 321 nM; against HLA-DRB1*11:01 it was 372 nM; against HLA-DRB1*12:01 it was 500 nM; against HLA-DRB1*13:02 it was > 40000 nM; on HLA-DRB1*15:01 it was 12 nM.

Turning to `CC[C@H](C)[C@H](NC(=O)[C@H](CCCNC(=N)N)NC(=O)[C@H](CCCCN)NC(=O)[C@H](CCCNC(=N)N)NC(=O)[C@H](CC(N)=O)NC(=O)[C@H](Cc1c[nH]c2ccccc12)NC(=O)[C@H](C)NC(=O)[C@H](Cc1ccc(O)cc1)NC(=O)[C@@H](NC(=O)[C@H](CO)NC(=O)[C@H](C)NC(=O)[C@H](Cc1ccccc1)NC(=O)[C@@H](N)CCCNC(=N)N)C(C)C)C(=O)N[C@@H](CO)C(=O)N[C@@H](CC(N)=O)C(=O)O` [compound 70], the IC50 against HLA-DRB1*01:01 was 5930 nM; at HLA-DRB1*03:01, > 40000 nM; on HLA-DRB1*04:01, 7890 nM; on HLA-DRB1*04:05, 6270 nM; at HLA-DRB1*07:01, 540 nM; at HLA-DRB1*08:02, 64 nM. The IC50 against HLA-DRB1*09:01 is 1380 nM; against HLA-DRB1*11:01, 3.9 nM; on HLA-DRB1*12:01, 31600 nM; at HLA-DRB1*13:02, > 40000 nM; at HLA-DRB1*15:01, 136 nM.

For the compound `CC[C@H](C)[C@H](NC(=O)[C@H](Cc1ccccc1)NC(=O)[C@H](CO)NC(=O)[C@H](CCCNC(=N)N)NC(=O)[C@H](CCCCN)NC(=O)[C@H](CO)NC(=O)[C@@H]1CCCN1C(=O)[C@@H](N)CCCCN)C(=O)N[C@@H](CCC(=O)O)C(=O)N[C@@H](CC(=O)O)C(=O)N[C@@H](CC(C)C)C(=O)N[C@@H](CC(C)C)C(=O)N[C@@H](Cc1ccccc1)C(=O)N[C@@H](CC(N)=O)C(=O)N[C@@H](CCCCN)C(=O)O` [peptide 163], the IC50 against HLA-DRB1*01:01 is > 40000 nM; on HLA-DRB1*03:01 it was 1500 nM; against HLA-DRB1*04:01, 451 nM; at HLA-DRB1*04:05, 3440 nM; against HLA-DRB1*07:01 it was 1930 nM; at HLA-DRB1*08:02 it was 3410 nM. Besides, the IC50 was 519 nM against HLA-DRB1*09:01; 301 nM at HLA-DRB1*11:01; 3980 nM against HLA-DRB1*12:01; > 40000 nM on HLA-DRB1*13:02; 6810 nM on HLA-DRB1*15:01.

Take `CC(C)C[C@H](NC(=O)[C@H](CCCNC(=N)N)NC(=O)[C@H](Cc1ccc(O)cc1)NC(=O)[C@H](CC(C)C)NC(=O)[C@@H](N)Cc1ccc(O)cc1)C(=O)N[C@@H](Cc1ccccc1)C(=O)N[C@@H](CCCNC(=N)N)C(=O)N[C@@H](CCCCN)C(=O)N[C@@H](CO)C(=O)N[C@@H](CC(N)=O)C(=O)N[C@@H](CC(C)C)C(=O)N[C@@H](CCCCN)C(=O)N1CCC[C@H]1C(=O)N[C@@H](Cc1ccccc1)C(=O)N[C@@H](CCC(=O)O)C(=O)O` [peptide 91]: the IC50 at HLA-DRB1*01:01 was 7360 nM; against HLA-DRB1*03:01, > 40000 nM; at HLA-DRB1*04:01, 590 nM; against HLA-DRB1*04:05, 543 nM; against HLA-DRB1*07:01, 575 nM; at HLA-DRB1*08:02, 23 nM. Besides, the IC50 turned out to be 13 nM at HLA-DRB1*09:01; 4.2 nM at HLA-DRB1*11:01; 323 nM at HLA-DRB1*12:01; 8570 nM against HLA-DRB1*13:02; 1.7 nM against HLA-DRB1*15:01.

The IC50 is the point on the concentration scale where inhibition reaches its midpoint.
